Assay results reported in US9938273B2 (Plexxikon Inc., priority 2015, dated 2018).

Biological target: T1, c-KIT (Homo sapiens, UniProt P10721)
T1 construct: purchased Millipore 14-559K
Assay: AlphaScreen kinase assay with recombinant enzyme, c-KIT
Assay type: biochemical
Conditions: 100ATP, 8pt, GMean
How it was run: (§1)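 Recombinant kinase phosphorylates biotinylated poly(Glu4-Tyr) peptide (30 nM final); streptavidin donor and anti-phosphotyrosine PY20 acceptor beads (10 μg/mL final) give a 580 nm proximity signal on 680 nm excitation. IC50 determinations used a final concentration of 10 μM for FLT3-D835Y/FLT3-ITD and 100 μM for c-KIT.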

T1 sequence (P10721 26-976): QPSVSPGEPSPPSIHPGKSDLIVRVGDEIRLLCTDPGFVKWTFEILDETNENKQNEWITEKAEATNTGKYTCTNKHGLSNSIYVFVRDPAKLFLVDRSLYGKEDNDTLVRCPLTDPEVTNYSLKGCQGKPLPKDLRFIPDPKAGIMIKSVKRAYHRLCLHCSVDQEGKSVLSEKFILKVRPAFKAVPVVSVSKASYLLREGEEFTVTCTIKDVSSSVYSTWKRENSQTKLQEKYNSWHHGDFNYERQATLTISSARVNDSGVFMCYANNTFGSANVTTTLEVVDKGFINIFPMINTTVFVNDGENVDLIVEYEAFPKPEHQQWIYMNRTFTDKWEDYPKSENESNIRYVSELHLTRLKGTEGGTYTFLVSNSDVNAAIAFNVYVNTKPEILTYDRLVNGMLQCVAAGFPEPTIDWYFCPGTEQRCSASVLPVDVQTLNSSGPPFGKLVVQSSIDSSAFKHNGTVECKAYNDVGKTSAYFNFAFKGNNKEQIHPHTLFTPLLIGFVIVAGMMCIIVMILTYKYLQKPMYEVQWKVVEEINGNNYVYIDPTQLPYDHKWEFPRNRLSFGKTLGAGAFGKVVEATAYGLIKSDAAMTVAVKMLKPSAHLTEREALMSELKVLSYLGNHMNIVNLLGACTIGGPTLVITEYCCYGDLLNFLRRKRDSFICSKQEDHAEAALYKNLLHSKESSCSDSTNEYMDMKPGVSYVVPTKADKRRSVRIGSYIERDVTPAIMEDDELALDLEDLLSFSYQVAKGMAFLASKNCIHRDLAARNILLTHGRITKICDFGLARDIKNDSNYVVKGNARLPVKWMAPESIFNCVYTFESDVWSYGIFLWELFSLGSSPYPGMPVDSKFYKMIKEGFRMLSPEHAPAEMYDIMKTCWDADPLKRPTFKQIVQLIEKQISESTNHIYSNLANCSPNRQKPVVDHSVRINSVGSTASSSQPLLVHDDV

| IC50 [µM] | SMILES |
| --- | --- |
| 0.0001 to 10 | CONC(=O)c1cccc(-c2cnc3[nH]c(-c4ccccc4)cc3c2)c1 [Compound P-0003, N-methoxy-3-(2-phenyl-1H-pyrrolo[2,3-b]pyridin-5-yl)benzamide] |
| 0.0001 to 10 | C#Cc1cc2cc(-c3cccc(S(=O)(=O)NC4CC4)c3)cnc2[nH]1 [Compound P-0004, N-cyclopropyl-3-(2-ethynyl-1H-pyrrolo[2,3-b]pyridin-5-yl)benzenesulfonamide] |
| 0.0001 to 10 | NC(=O)Nc1ccc(-c2cnc3[nH]c(-c4ccccc4)cc3c2)cc1 [Compound P-0005, [4-(2-phenyl-1H-pyrrolo[2,3-b]pyridin-5-yl)phenyl]urea] |
| 10 to 50 | CN(C)S(=O)(=O)Nc1cccc(-c2cnc3[nH]c(-c4ccccc4)cc3c2)c1 [Compound P-0007, 5-[3-(dimethylsulfamoylamino)phenyl]-2-phenyl-1H-pyrrolo[2,3-b]pyridine] |
| 50 to 100 | CC(=O)NC1CCN(C(=O)c2n[nH]c3ccc(-c4cnc5[nH]c(-c6ccccc6)cc5c4)cc23)CC1 [Compound P-0021, N-[1-[5-(2-phenyl-1H-pyrrolo[2,3-b]pyridin-5-yl)-1H-indazole-3-carbonyl]-4-piperidyl]acetamide] |

Biological target: T2, FLT3-ITD (Homo sapiens, UniProt P36888)
T2 sequence (P36888 1-993): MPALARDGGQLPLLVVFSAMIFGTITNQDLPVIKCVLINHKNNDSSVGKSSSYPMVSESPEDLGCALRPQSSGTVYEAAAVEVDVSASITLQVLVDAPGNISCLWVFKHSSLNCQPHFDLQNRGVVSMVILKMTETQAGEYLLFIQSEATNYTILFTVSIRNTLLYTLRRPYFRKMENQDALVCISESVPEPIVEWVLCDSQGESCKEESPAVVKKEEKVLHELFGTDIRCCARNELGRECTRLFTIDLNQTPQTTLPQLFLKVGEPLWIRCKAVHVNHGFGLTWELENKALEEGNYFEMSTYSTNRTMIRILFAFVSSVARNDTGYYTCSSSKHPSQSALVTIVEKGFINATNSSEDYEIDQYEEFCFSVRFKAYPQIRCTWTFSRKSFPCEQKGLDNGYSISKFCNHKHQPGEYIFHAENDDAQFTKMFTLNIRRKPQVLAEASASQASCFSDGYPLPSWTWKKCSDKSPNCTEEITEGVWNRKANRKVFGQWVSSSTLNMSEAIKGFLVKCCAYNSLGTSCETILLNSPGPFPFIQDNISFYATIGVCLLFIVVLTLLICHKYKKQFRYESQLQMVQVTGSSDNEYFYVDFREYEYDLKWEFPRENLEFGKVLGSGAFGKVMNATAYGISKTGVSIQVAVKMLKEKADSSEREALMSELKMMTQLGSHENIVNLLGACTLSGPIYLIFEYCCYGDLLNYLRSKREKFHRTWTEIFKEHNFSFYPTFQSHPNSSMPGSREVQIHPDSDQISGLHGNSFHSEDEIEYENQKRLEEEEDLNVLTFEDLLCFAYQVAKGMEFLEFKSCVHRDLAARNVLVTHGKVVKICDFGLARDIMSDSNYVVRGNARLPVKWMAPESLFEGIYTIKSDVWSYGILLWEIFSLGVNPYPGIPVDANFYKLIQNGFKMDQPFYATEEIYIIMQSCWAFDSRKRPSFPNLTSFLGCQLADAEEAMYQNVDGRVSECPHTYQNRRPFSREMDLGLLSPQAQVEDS
Assay: AlphaScreen kinase assay with recombinant enzyme, FLT3-ITD
Assay type: biochemical
Conditions: 8pt; read-out: FLT3_ITD 8pt: IC50
How it was run: as §1

| IC50 [µM] | SMILES |
| --- | --- |
| 0.0001 to 10 | CC(C)(C#N)NC(=O)c1cccc(-c2cnc3[nH]c(-c4cscn4)cc3c2)n1 [Compound P-0167, N-(1-cyano-1-methyl-ethyl)-6-(2-thiazol-4-yl-1H-pyrrolo[2,3-b]pyridin-5-yl)pyridine-2-carboxamide] |
| 0.0001 to 10 | CC(C)Oc1ccc(-c2cc3cc(-c4cccc(C(=O)NC(C)(C)C#N)n4)cnc3[nH]2)cn1 [Compound P-0190, N-(1-cyano-1-methyl-ethyl)-6-[2-(6-isopropoxy-3-pyridyl)-1H-pyrrolo[2,3-b]pyridin-5-yl]pyridine-2-carboxamide] |
| 0.0001 to 10 | CC(C)Oc1ncc(-c2cc3cc(-c4cccc(C(=O)NC(C)(C)C#N)n4)cnc3[nH]2)cn1 [Compound P-0191, N-(1-cyano-1-methyl-ethyl)-6-[2-(2-isopropoxypyrimidin-5-yl)-1H-pyrrolo[2,3-b]pyridin-5-yl]pyridine-2-carboxamide] |
| 0.0001 to 10 | CC(C)(C#N)NC(=O)c1cccc(-c2cnc3[nH]c(-c4cncnc4)cc3c2)n1 [Compound P-0195, N-(1-cyano-1-methyl-ethyl)-6-(2-pyrimidin-5-yl-1H-pyrrolo[2,3-b]pyridin-5-yl)pyridine-2-carboxamide] |
| 0.0001 to 10 | COc1ncc(-c2cc3cc(-c4cccc(C(=O)NC(C)(C)C#N)n4)cnc3[nH]2)cn1 [Compound P-0196, N-(1-cyano-1-methyl-ethyl)-6-[2-(2-methoxypyrimidin-5-yl)-1H-pyrrolo[2,3-b]pyridin-5-yl]pyridine-2-carboxamide] |
| 0.0001 to 10 | CC(C)(C#N)NC(=O)c1cccc(-c2cnc3[nH]c(-c4ccc(N5CCOCC5)nc4)cc3c2)n1 [Compound P-0197, N-(1-cyano-1-methyl-ethyl)-6-[2-(6-morpholino-3-pyridyl)-1H-pyrrolo[2,3-b]pyridin-5-yl]pyridine-2-carboxamide] |
| 0.0001 to 10 | CCOc1ncc(-c2cc3cc(-c4cccc(C(=O)NC(C)(C)C#N)n4)cnc3[nH]2)cn1 [Compound P-0203, N-(1-cyano-1-methyl-ethyl)-6-[2-(2-ethoxypyrimidin-5-yl)-1H-pyrrolo[2,3-b]pyridin-5-yl]pyridine-2-carboxamide] |
| 0.0001 to 10 | CCc1ncc(-c2cc3cc(-c4cccc(C(=O)NC(C)(C)C#N)n4)cnc3[nH]2)cn1 [Compound P-0205, N-(1-cyano-1-methyl-ethyl)-6-[2-(2-ethylpyrimidin-5-yl)-1H-pyrrolo[2,3-b]pyridin-5-yl]pyridine-2-carboxamide] |
| 0.0001 to 10 | CCCOc1ncc(-c2cc3cc(-c4cccc(C(=O)NC(C)(C)C#N)n4)cnc3[nH]2)cn1 [Compound P-0206, N-(1-cyano-1-methyl-ethyl)-6-[2-(2-propoxypyrimidin-5-yl)-1H-pyrrolo[2,3-b]pyridin-5-yl]pyridine-2-carboxamide] |

Further lines, the compound ahead of its results:

| SMILES | IC50 [µM] |
| --- | --- |
| CONC(=O)c1cccc(-c2cnc3[nH]c(-c4ccccc4)cc3c2)c1 [Compound P-0003, N-methoxy-3-(2-phenyl-1H-pyrrolo[2,3-b]pyridin-5-yl)benzamide] | 0.0001 to 10 |
| NC(=O)Nc1ccc(-c2cnc3[nH]c(-c4ccccc4)cc3c2)cc1 [Compound P-0005, [4-(2-phenyl-1H-pyrrolo[2,3-b]pyridin-5-yl)phenyl]urea] | 0.0001 to 10 |
| CN1CC(NC(=O)c2cccc(-c3cnc4[nH]c(-c5ccccc5)cc4c3)n2)C1 [Compound P-0075, N-(1-methylazetidin-3-yl)-6-(2-phenyl-1H-pyrrolo[2,3-b]pyridin-5-yl)pyridine-2-carboxamide] | 0.0001 to 10 |
| NC1(C(F)(F)F)CCN(C(=O)c2cccc(-c3cnc4[nH]c(-c5ccccc5)cc4c3)n2)C1 (stereo not drawn) [Compound P-0077, [3-amino-3-(trifluoromethyl)pyrrolidin-1-yl]-[6-(2-phenyl-1H-pyrrolo[2,3-b]pyridin-5-yl)-2-pyridyl]methanone] | 0.0001 to 10 |
| CC1(N)CCN(C(=O)c2cccc(-c3cnc4[nH]c(-c5ccccc5)cc4c3)n2)C1 (stereo not drawn) [Compound P-0078, (3-amino-3-methyl-pyrrolidin-1-yl)-[6-(2-phenyl-1H-pyrrolo[2,3-b]pyridin-5-yl)-2-pyridyl]methanone] | 0.0001 to 10 |
| CNCC1CCN(C(=O)c2cccc(-c3cnc4[nH]c(-c5ccccc5)cc4c3)n2)C1 (stereo not drawn) [Compound P-0079, [3-(methylaminomethyl)pyrrolidin-1-yl]-[6-(2-phenyl-1H-pyrrolo[2,3-b]pyridin-5-yl)-2-pyridyl]methanone] | 0.0001 to 10 |
| CC(C)(C#N)NC(=O)c1cccc(-c2cnc3[nH]c(-c4cnn(C(=O)C5CC5)c4)cc3c2)n1 [Compound P-0184, N-(1-cyano-1-methyl-ethyl)-6-[2-[1-(cyclopropanecarbonyl)pyrazol-4-yl]-1H-pyrrolo[2,3-b]pyridin-5-yl]pyridine-2-carboxamide] | 0.0001 to 10 |
| CC(C)(C#N)NC(=O)c1cccc(-c2cnc3[nH]c(-c4cnn(C(F)F)c4)c(Cl)c3c2)n1 [Compound P-0185, 6-[3-chloro-2-[1-(difluoromethyl)pyrazol-4-yl]-1H-pyrrolo[2,3-b]pyridin-5-yl]-N-(1-cyano-1-methyl-ethyl)pyridine-2-carboxamide] | 0.0001 to 10 |
| CC(C)(C#N)NC(=O)c1cccc(-c2cnc3[nH]c(C4=CCS(=O)(=O)CC4)cc3c2)n1 [Compound P-0186, N-(1-cyano-1-methyl-ethyl)-6-[2-(1,1-dioxo-3,6-dihydro-2H-thiopyran-4-yl)-1H-pyrrolo[2,3-b]pyridin-5-yl]pyridine-2-carboxamide] | 0.0001 to 10 |
| Cc1nn(C(C)C)cc1-c1[nH]c2ncc(-c3cccc(C(=O)NC(C)(C)C#N)n3)cc2c1Cl [Compound P-0192] | 0.0001 to 10 |
| CC(C)(C#N)NC(=O)c1cccc(-c2cnc3[nH]c(-c4cnn(CC(F)(F)F)c4)cc3c2)n1 [Compound P-0193, N-(1-cyano-1-methyl-ethyl)-6-[2-[1-(2,2,2-trifluoroethyl)pyrazol-4-yl]-1H-pyrrolo[2,3-b]pyridin-5-yl]pyridine-2-carboxamide] | 0.0001 to 10 |
| CC(C)(C#N)NC(=O)c1cccc(-c2cnc3[nH]c(-c4ccc(C5(C#N)CC5)cc4)cc3c2)n1 [Compound P-0194, 6-[2-[4-(1-cyanocyclopropyl)phenyl]-1H-pyrrolo[2,3-b]pyridin-5-yl]-N-(1-cyano-1-methyl-ethyl)pyridine-2-carboxamide] | 0.0001 to 10 |
| CC(C)(C#N)NC(=O)c1cccc(-c2cnc3[nH]c(-c4cnc(N5CCOCC5)nc4)cc3c2)n1 [Compound P-0198, N-(1-cyano-1-methyl-ethyl)-6-[2-(2-morpholinopyrimidin-5-yl)-1H-pyrrolo[2,3-b]pyridin-5-yl]pyridine-2-carboxamide] | 0.0001 to 10 |
| CC(C)(C#N)NC(=O)c1cccc(-c2cnc3[nH]c(-c4cccc(N5CCCS5(=O)=O)c4)cc3c2)n1 [Compound P-0199, N-(1-cyano-1-methyl-ethyl)-6-[2-[3-(1,1-dioxo-1,2-thiazolidin-2-yl)phenyl]-1H-pyrrolo[2,3-b]pyridin-5-yl]pyridine-2-carboxamide] | 0.0001 to 10 |
| CC(C)(NC(=O)c1cccc(-c2cnc3[nH]c(-c4cnn(C5CCNCC5)c4)cc3c2)n1)C(N)=O [Compound P-0200, N-(2-amino-1,1-dimethyl-2-oxo-ethyl)-6-[2-[1-(4-piperidyl)pyrazol-4-yl]-1H-pyrrolo[2,3-b]pyridin-5-yl]pyridine-2-carboxamide] | 0.0001 to 10 |
| CC(C)(C#N)NC(=O)c1cccc(-c2cnc3[nH]c(-c4cnc(N5CCCC5)nc4)cc3c2)n1 [Compound P-0202, N-(1-cyano-1-methyl-ethyl)-6-[2-(2-pyrrolidin-1-ylpyrimidin-5-yl)-1H-pyrrolo[2,3-b]pyridin-5-yl]pyridine-2-carboxamide] | 0.0001 to 10 |
